Broadly, the melting point is the temperature, or range, at which the solid turns liquid. By IC50 is commonly meant the point on the concentration scale where inhibition reaches its midpoint.

The test system of data set [1] is human embryonic kidney (HEK293) cell line. Description: MTT cell viability (cytotoxicity) assay in HEK293 cells. Format: cell-based. The settings on record: 48 h incubation, non-tumor HEK293 cells, concentration needed to cause 50% net cell mortality. From the text: The cytotoxicity of the arene-Ru and arene-Os complexes was investigated against HeLa and Hek293 cells. The former cell is a cervical cancer line, while the latter is a non-tumor kidney cell line used to examine tumor selectivity. […] These findings imply that the higher stability of the chelating (SS) and the pincer (SNS) ligand architectures in the complexes improve the biological (anti-proliferative) activity by rendering ligand dissociation less likely to occur under physiological conditions. The pincer (SNS) osmium complexes were more cytotoxic than their ruthenium analogues. […] These allow for more efficient interactions with biological target molecules. Osmium typically forms coordinative bonds with more inert bonds than in the analogous lighter homolog, ruthenium. Due to their relative inertness and sufficient stability under physiological conditions, osmium complexes are considered exciting alternatives to ruthenium-based anti-cancer agents. However, there was no apparent general pattern in the reactivity of the two metal centers and the isostructural ligand. […]
(§1) The cytotoxicity of the compounds was examined in the HeLa and HEK293 cells using the MTT assay. […] Absorbance measurements were then taken at 570 nm using a Mindray MR-96A microplate reader (Vacutec, Hamburg, Germany).

Data set [2] relates to cervical carcinoma (HeLa) cell line. Put plainly: MTT cell viability (cytotoxicity) assay in HeLa cells. Format: cell-based, human.
Source text: The cytotoxicity of the arene-Ru and arene-Os complexes was investigated against HeLa and Hek293 cells. The former cell is a cervical cancer line, while the latter is a non-tumor kidney cell line used to examine tumor selectivity. […] Due to their relative inertness and sufficient stability under physiological conditions, osmium complexes are considered exciting alternatives to ruthenium-based anti-cancer agents.
Phosphate-buffered saline tablets (PBS), 3-(4,5-dimethylthiazol-2-yl)-2.5-diphenyltetrazolium bromide (MTT), and DMSO were obtained from Merck (Darmstadt, Germany). The human embryonic kidney (HEK293) and cervical carcinoma (HeLa) cell lines were sourced from the American Type Culture Collection (ATCC) (Manassas, VA, USA). […]
as §1

In turn, `Cn1ccn(Cc2cccc(Cn3ccn(C)c3=S)n2)c1=S` showed a melting point of 190 to 193 °C.

`Cn1ccn(CCn2ccn(C)c2=S)c1=S` registered a melting point of 195 to 197 °C.

For the compound `CC(C)n1ccn(-c2cccc(-n3ccn(C(C)C)c3=S)n2)c1=S`, the melting point lay in the range of 189 to 190 °C.

In the case of `CCn1ccn(Cn2ccn(CC)c2=S)c1=S`, the melting point was in the range of 175 to 177 °C.

In the case of `O=c1[nH]cc(F)c(=O)[nH]1` [5-Fluorouracil, reference compound], the IC50 stood at 180 ± 20 µM in data set [1] and 87 ± 15 µM in data set [2] (Homo sapiens, MTT, 48 h incubation, HeLa cervical cancer cells, concentration needed to cause 50% net cell mortality). The “Selectivity between tumor cells (HeLa) and normal cells (Hek293)” value in data set [2] (HeLa vs Hek293, MTT assay) is recorded as “selective toward the tumor cells”.

As to `CCCn1ccn(CCn2ccn(CCC)c2=S)c1=S`, the melting point lay in the range of 91 to 92 °C.

The compound `CCn1ccn(CCn2ccn(CC)c2=S)c1=S` displayed a melting point of 131 to 133 °C.

Compound `Cn1ccn(-c2cccc(-n3ccn(C)c3=S)n2)c1=S` registered a melting point of 270 to 273 °C.

With `Cn1ccn(Cn2ccn(C)c2=S)c1=S`, the melting point was 194 to 197 °C.

For the origin of these results see publication PMC10935334, “Chemotherapeutic Activities of New η^6-p-Cymene Ruthenium(II) and Osmium(II) Complexes with Chelating SS and Tridentate SNS Ligands” (Molecules, 2024).
